Assay results: US20250387331A1, “PROSTAGLANDIN ANALOGS AND METHODS FOR SUSTAINED GLAUCOMA MANAGEMENT” (Peregrine Ophthalmic PTE LTD, priority 2024, published 2025)

How the values were obtained:
rabbit eye [1] = conditions: in vivo
Protocol: OCT macula were captured at baseline, at week 1, and at 4 week intervals thereafter.
P values were calculated using a 2 tailed t-test.

rabbit eye [2] = test: IOP after suprachoroidal liposomal latanoprost or daily topical latanoprost (Example 2); type: in vivo, Dutch-Belt rabbits; conditions: daily eye drops 0.005% for two weeks
Protocol: A suprachoroidal injector (SupraMedical, Israel) was used that has a 30-gauge needle attached to an extension tubing connected to a 1 ml syringe. The length of the injector is adjusted by inputting readings of scleral thickness combined with a correction factor, supplied on a calibration table from the manufacturer. The scleral thickness was determined by ultrasound bio-microscopy (UBM). After the depth dial was set to the correct position, the plunger of the injector and the syringe were depressed simultaneously. Injections were delivered over 5-10 seconds. After the drug formulation or control was delivered, the plunger was released, and the injector gradually removed.
Rabbits receiving suprachoroidal injection had their scleral thickness measured with Optovue RTVue OCT. The thickness of the sclera was measured at 3 mm posterior to the corneoscleral junction. An average of three readings were taken to determine the mean scleral thickness. The length of the needle on the injector was subsequently calibrated by adding 300 μm to the mean scleral thickness. […]
Four Dutch-Belt rabbits (n=8 eyes) were used in this study. Baseline IOP was measured using a calibrated Tonopen XL® (Reichert Ophthalmic Instruments, Depew, NY). […] Animals were handled consistently to ensure stable IOP readings. […]
Three readings were taken for each eye and an average obtained. […]

Compound: CC(C)OC(=O)CCC/C=C\C[C@@H]1[C@@H](CC[C@@H](O)CCc2ccccc2)[C@H](O)C[C@@H]1O [Topical latanoprost, latanoprost]
- Mean retinal thickness (rabbit eye [1]): 131.44 μm
- maximum decrease in IOP (rabbit eye [2]): 38%
